The RepoRT retention time repository (doi:10.1021/acs.analchem.2c02893)

Test: RP, Thermo Scientific Acclaim RSLC 120 C18, 100 × 2.1 mm, 2.2 µm, 30 °C, 0.2 mL/min, estimated dead time 1.1 min; A: 90% water + 10% methanol + 0.01% formic acid + 5 mM ammonium formate, pH 3.61; B: methanol + 0.01% formic acid + 5 mM ammonium formate, pH 3.61; gradient (min/%B) 0/1 1/1 2/39 13/99.9 15/99.9 15.1/1 20.1/1
Conditions: stereoisomer not certain
CC(C)Oc1cccc(NC(=O)c2ccccc2C(F)(F)F)c1 [Flutolanil] showed an LC retention time of 9.52 min. CCCCCCn1cc(C(=O)c2cccc3ccccc23)cc1-c1ccccc1 [JWH-147] showed an LC retention time of 13.3 min. For CNC(=O)ON=CC(C)(C)S(C)(=O)=O [Aldicarb-sulfone (Aldoxycarb)], the LC retention time was 3.75 min. CN(C)C1C(=O)C(C(N)=O)=C(O)C2(O)C(=O)C3=C(O)c4c(O)ccc(Cl)c4C(C)(O)C3CC12 (centres undefined) [Chlortetracycline] showed an LC retention time of 4.5 min. Work on CCC1OC(=O)C(C)C(OC2CC(C)(OC)C(O)C(C)O2)C(C)C(OC2OC(C)CC(N(C)C)C2O)C(C)(O)CC(C)C(=O)C(C)C(O)C1(C)O (centres undefined) [Erythromycin] yielded an LC retention time of 8 min. In the case of c1cc2c(c(NC3=NCCN3)c1)CCC2 [Indanazoline], the LC retention time was 4.76 min. O=C(O)C1=CC=C2N=NN=C2C1 [Benzotriazole-5-carboxylic acid] gave an LC retention time of 3.81 min. CC1=C(CC(=O)O)c2cc(F)ccc2C1=Cc1ccc(S(C)=O)cc1 (centres undefined) [Sulindac] gave an LC retention time of 8.24 min. Work on CCOP(=S)(OCC)ON=C(C#N)c1ccccc1 [Phoxim] yielded an LC retention time of 11.2 min. Compound C#CCN1C(=O)COc2cc(F)c(N3C(=O)C4=C(CCCC4)C3=O)cc21 [Flumioxazin] has an LC retention time of 8.73 min. Compound CCN(CC)CCOCCOC(=O)C1(c2ccccc2)CCCC1 [Pentoxyverine] has an LC retention time of 7.87 min. COC1CC(CC2CCC(C)C(C(C)C(=O)O)O2)OC2(OC(C)(C3CCC(C)(C4OC(C5OC(O)(CO)C(C)CC5C)CC4C)O3)CC2C)C1C (centres undefined) [Nigericin] showed an LC retention time of 13.9 min. With O=C(NC(=O)c1c(F)cccc1F)Nc1ccc(Cl)cc1 [Diflubenzuron] the LC retention time was 10.6 min. For COP(=O)(OC)OC(C)=CC(=O)OC(C)c1ccccc1 (centres undefined) [Crotoxyphos], the LC retention time was 9.39 min. Compound CC(C(O)c1ccccc1)N(C)C (centres undefined) [Methylephedrine] has an LC retention time of 3.73 min. Compound CC(=O)OC1(C(C)=O)CCC2C3C=C(C)C4=CC(=O)CCC4(C)C3CCC21C (centres undefined) [Megestrol-17-acetate] has an LC retention time of 10.9 min. Compound Cc1cc(N(C)C)nc(Cl)n1 [Crimidine] has an LC retention time of 6.2 min. Work on CC(C)OC(=O)Nc1cccc(Cl)c1 [Chlorpropham] yielded an LC retention time of 9.78 min. With CCc1cccc(C)c1N(C(=O)CS(=O)(=O)O)C(C)C(=O)O (centres undefined) the LC retention time was 10.9 min. CCCCCCCCCCCC[N+](CCO)(CCO)Cc1ccccc1 [Benzoxonium] gave an LC retention time of 11.3 min. For CN1CC(=O)N2C(Cc3c([nH]c4ccccc34)C2c2ccc3c(c2)OCO3)C1=O (centres undefined) [Tadalafil], the LC retention time was 8.26 min. CCC(C)N(C(=O)SCc1ccccc1)C(C)CC (centres undefined) [Tiocarbazil] showed an LC retention time of 12.8 min. Compound CN(C)C(=O)Nc1ccccc1 [Fenuron] has an LC retention time of 5.12 min. In the case of CCCc1nn(C)c2c(=O)[nH]c(-c3cc(S(=O)(=O)N4CCN(CC)CC4)ccc3OCC)nc12 [HomoSildenafil], the LC retention time was 7.84 min. For CCCSc1nc(NC2CC2c2ccc(F)c(F)c2)c2nnn(C3CC(OCCO)C(O)C3O)c2n1 (centres undefined) [Ticagrelor], the LC retention time was 11.3 min. Compound CCCCCn1cc(C(=O)Nc2cccc3ccccc23)c2ccccc21 [NNEI] has an LC retention time of 11.7 min. In the case of CC(C)C(O)(C(=O)OCC1=CCN2CCC(O)C12)C(C)O (centres undefined) [Lycopsamine], the LC retention time was 3.65 min. For CCCCn1cc(C(=O)c2cccc3ccc(C)cc23)c2ccccc21 [JWH-073-2-Methyl], the LC retention time was 12.3 min. In the case of CN(Cc1cnc2nc(N)nc(N)c2n1)c1ccc(C(=O)NC(CCC(=O)O)C(=O)O)cc1 (centres undefined) [Methotrexate], the LC retention time was 3.96 min. Compound CCOC(=O)C(Cl)Cc1cc(-n2nc(C)n(C(F)F)c2=O)c(F)cc1Cl (centres undefined) [Carfentrazone-ethyl] has an LC retention time of 10.7 min. For CC(=O)Oc1c(C)cc(OCC(O)CNC(C)C)c(C)c1C (centres undefined) [Metipranolol], the LC retention time was 6.28 min. Compound CCOC(=O)NC(=S)Nc1ccccc1NC(=S)NC(=O)OCC [Thiophanate-ethyl] has an LC retention time of 8.61 min. For CC(C)(c1ccc(OCC(O)CO)cc1)c1ccc(OCC2CO2)cc1 (centres undefined) [Bisphenol<U+00A0>A (2,3-dihydroxypropyl) glycidyl ether], the LC retention time was 9.52 min. C=C(C)C1CCC(C)=CC1c1c(O)cc(CCCCC)cc1O (centres undefined) [Cannabidiol] showed an LC retention time of 12.7 min. For CC(C)c1c(C(=O)Nc2ccccc2)c(-c2ccccc2)c(-c2ccc(F)cc2)n1CCC(O)CC(O)CC(=O)O (centres undefined) [Atorvastatin], the LC retention time was 9.96 min. With CN(C)C(=N)N=C(N)N [Metformin] the LC retention time was 1.39 min. Work on CC(NCCc1ccc(O)cc1)C(O)c1ccc(O)cc1 (centres undefined) [Ritodrine] yielded an LC retention time of 3.79 min. Compound CC=C1CC(C)C(O)(CO)C(=O)OCC2=CC[N+]3([O-])CCC(OC1=O)C23 (centres undefined) [Retrorsine-N-oxide] has an LC retention time of 4.33 min. CCOP(=S)(OCC)Oc1ccc2c(C)c(Cl)c(=O)oc2c1 [Coumaphos] showed an LC retention time of 11.2 min. C[N+]1([O-])CCN2c3ccccc3Cc3ccccc3C2C1 (centres undefined) [Mianserine-N-oxide] gave an LC retention time of 7.63 min. CCCc1nn(C)c2c(=O)[nH]c(-c3cc(S(=O)(=O)N4CCN(C5CCCC5)CC4)ccc3OCC)nc12 [Cyclopentynafil] showed an LC retention time of 9.01 min. CC=C1CC(C)C(O)(CO)C(=O)OCC2=CCN3CCC(OC1=O)C23 (centres undefined) [Retrorsine] gave an LC retention time of 4.01 min. Work on CCCCCCCCOC(=O)c1ccccc1C(=O)OCCCCCCCC [Phthalate-Di-n-octyl] yielded an LC retention time of 15.3 min. Compound CCCCCn1cc(C(=O)Cc2ccccc2Cl)c2ccccc21 [JWH-203] has an LC retention time of 12.2 min. With CN1C2CCC1CC(OC(=O)c1c[nH]c3ccccc13)C2 (centres undefined) [Tropisetron] the LC retention time was 5.09 min. Work on CC(C)N(C(=O)SCC(Cl)=CCl)C(C)C [Diallate] yielded an LC retention time of 11.8 min. For CN(C)CC(CN1c2ccccc2Sc2ccccc21)N(C)C (centres undefined) [Promazine-amino], the LC retention time was 8.54 min. For CC(=O)OCC(=O)C1(O)C(C)CC2C3CCC4=CC(=O)C=CC4(C)C3(F)C(O)CC21C (centres undefined) [Betamethasone acetate], the LC retention time was 9.37 min. For CCCN(CCOc1c(Cl)cc(Cl)cc1Cl)C(=O)NC=O, the LC retention time was 11.2 min. CC(C)(C)c1n[nH]c(=O)n(N)c1=O [Metribuzin-Diketo (DK)] showed an LC retention time of 5.89 min. NC1CC1c1ccccc1 (centres undefined) [Tranylcypromine] gave an LC retention time of 4.27 min. With NC12CC3CC(CC(C3)C1)C2 [Amantadine] the LC retention time was 4.86 min. With C#CCOC(=O)C(C)Oc1ccc(Oc2ncc(Cl)cc2F)cc1 (centres undefined) [Clodinafop-propargyl] the LC retention time was 10.7 min. c1cnc2cc3c(cc2n1)C1CNCC3C1 [Varenicline] gave an LC retention time of 3.63 min. Work on CSC1=NC(C)(c2ccccc2)C(=O)N1Nc1ccccc1 (centres undefined) [Fenamidone] yielded an LC retention time of 9.22 min. With CC12CCC3c4ccc(O)cc4CCC3C1CC(O)C2O (centres undefined) [E3  estriol (1-3-5(10)-estratrien-3 16-17-triol)] the LC retention time was 6.83 min. CN(C)C(=O)Nc1cccc(C(F)(F)F)c1 [Fluometuron] gave an LC retention time of 7.85 min. Compound N#Cc1nn(-c2c(Cl)cc(C(F)(F)F)cc2Cl)c(N)c1C(F)(F)F [Fipronil-desulfinyl] has an LC retention time of 10.4 min. With COc1ccc(Cl)cc1C(=O)NCCc1ccc(S(=O)(=O)NC(=O)NC2CCCCC2)cc1 [Glibenclamide] the LC retention time was 9.98 min. Work on OC(c1ccccc1)(c1ccccc1)C1CCCCN1 (centres undefined) [Pipradrol] yielded an LC retention time of 5.78 min. With CCS(=O)(=O)Cc1ccccc1OC(=O)NC [Ethiofencarb-sulfone] the LC retention time was 4.63 min. Compound CN1C2CCC1CC(OC(c1ccccc1)c1ccccc1)C2 (centres undefined) [Benzatropine] has an LC retention time of 7.97 min. For COc1ccc(OC)c(CCN)c1 [2C-H], the LC retention time was 4.43 min. Work on N#CC(CCN1CCC(C(N)=O)(N2CCCCC2)CC1)(c1ccccc1)c1ccccc1 [Piritramide] yielded an LC retention time of 8.19 min. Work on N#Cc1c[nH]cc1-c1cccc(Cl)c1Cl [Fenpiclonil] yielded an LC retention time of 8.91 min. CC=CCC1=C(C)C(OC(=O)C2C(C=C(C)C(=O)OC)C2(C)C)CC1=O (centres undefined) [Pyrethrins: Cinerin II] showed an LC retention time of 11.6 min. In the case of CC(CN1c2ccccc2Sc2cccnc21)N(C)C (centres undefined) [Isothipendyl], the LC retention time was 6.47 min. With COC(=O)CCc1ccc(OCC(O)CNC(C)C)cc1 (centres undefined) [Esmolol] the LC retention time was 5.18 min. Work on CC(C)(C)NCC(O)c1ccccc1Cl (centres undefined) [Tulobuterol] yielded an LC retention time of 5.17 min. Compound Clc1cccc(N2CCNCC2)c1 [Chlorophenylpiperazine (meta-)<U+00A0>(mCPP)] has an LC retention time of 5.42 min. In the case of CCCCCn1cc(C(=O)c2cccc3ccccc23)c2ccccc21 [JWH-018], the LC retention time was 12.4 min. For c1ccc2[nH]c(-c3cscn3)nc2c1 [Thiabendazole], the LC retention time was 6.15 min. Compound CCc1nc(N)nc(N)c1-c1ccc(Cl)cc1 [Pyrimethamine] has an LC retention time of 5.92 min. With NC1CCC(c2ccc(Cl)c(Cl)c2)c2ccccc21 (centres undefined) [Sertraline-Desmethyl] the LC retention time was 9.02 min. CN1C2CCCC1CC(NC(=O)c1nn(C)c3ccccc13)C2 (centres undefined) [Granisetron] gave an LC retention time of 4.99 min. Work on O=C(O)c1cc(Oc2ccc(Cl)cc2Cl)ccc1[N+](=O)[O-] [Bifenox acid] yielded an LC retention time of 8.71 min. With CC(C)OC(=O)Nc1ccccc1 [Propham] the LC retention time was 8.11 min. For CC(C)(N)Cc1ccccc1 [Phentermine], the LC retention time was 4.64 min. Compound O=C1CC2(CCCCC2)CN1 [3,3-pentamethylene-4-butyrolactam] has an LC retention time of 6.64 min. In the case of C=C(c1ccccc1OCc1cccc(Cl)c1)n1ccnc1 [Croconazole], the LC retention time was 10.7 min. In the case of CCCCCCn1c(=O)c2c(ncn2C)n(C)c1=O [Pentifylline], the LC retention time was 9.44 min. Work on COCC(C)N(C(=O)C(=O)O)c1c(C)csc1C (centres undefined) [Dimethenamide-OXA] yielded an LC retention time of 6.36 min. Work on Cc1cccc(C)c1N(Cn1cccn1)C(=O)CS(=O)CC(=O)O (centres undefined) [Metazachlor BH 479-9] yielded an LC retention time of 4.94 min. CN(C)CCCn1c2c(c3ccccc31)CCCCCC2 [Iprindol] gave an LC retention time of 9.26 min.
